From US8716334B2, “Substituted cyclohexylidene-ethylidene-octahydro-indene compounds” (Ben Gurion University of the Negev Research and Development …, priority 2008, dated 2014)
Entries after “also recorded” stand apart in the source; their conditions may differ.

Tests used:
[1] = Calcium metabolic model in rats; assay type: in vivo; conditions: 20 ng daily for six days
Method: The clinical use of vitamin D3 as an anti-cancer agent is limited by its toxicity and concerns the possible development of hypercalcemia or hypercalciuria in treated patients. The calcium levels in rat blood, and the total daily secretion of calcium in rat urine were evaluated following daily treatments of 20 ng of vitamin D3, calcipotriene or BGP-15 for six days as shown in FIG. 15.

[2] = test system: HT-29 human colon cancer cells; experiment: In vivo anti-tumor activity, HT-29 tumors in nude mice; conditions: for tumor size relative to controls at 30 days after cancer cell injection / size of tumors versus vehicle-treated control mice: HT-29 sc in nude mice; for tumor size relative to controls at 30 days after cancer cell injection: 2 μg/kg ip; for size of tumors versus vehicle-treated control mice: 2 μg/kg ip from day 20; for weight loss or observable adverse effects: nude mice, 2 μg/kg ip three times per week
Method: In vivo anti-tumor activity of the novel derivatives of calcipotriol: Experiments were carried out to determine the ability of BGP-13 and BGP-15 to inhibit the growth of human tumor cells in vivo. […] Nude mice received a subcutaneous (sc) injection of HT-29 human colon cancer cells. At various time intervals after the administration of the tumor cells, the mice received three times per week intraperitoneal injections of BGP-13 and BGP-15 at a dose of 2 μg/kg. […] In one experiment 12 nude mice, which received a s.c. injection of HT-29, were divided into three groups. Starting from day 20 after tumor injection, 2 groups of the mice received ip injections of BGP-13 and BGP-15 respectively. […] At 30 days after cancer cell injection, the tumors in the treated group were half the size of the tumors in controls (FIG. 14).

MCF-7 cells = experiment: MTT viability assay in MCF-7 cells; assay type: cell-based, human; conditions: MCF-7, 1 or 5 μmol/L, 3 to 6 days
Method: (§1) LNCaP and MCF-7 cells were plated in 96-well plates and treated with 1 or 5 μmol/L test substances for 3 to 6 days. Cell viability following treatments was assayed by MTT. All experiments were conducted at least twice, and weighted results from all experiments are shown. *p<0.005 of BGP-15 relative to vitamin D3, **p<0.001 of BGP-15 relative to vitamin D3 and to calcipotriene.
(§2) LNCaP and MCF-7 cell-lines are widely used models for human prostate and mammary carcinomas respectively. Following BGP-15 purification and structural elucidation (FIG. 12), the effect of calcipotriene and BGP-15 on the viability of both LNCaP and MCF-7 cells was tested in-vitro by using the MTT assay, and was compared with the effect obtained by vitamin D3 (calcitriol).

LNCaP cells = experiment: MTT viability assay in LNCaP cells; assay type: cell-based, human; conditions: 1 or 5 μmol/L, 3 to 6 days
Method: as §1, §2

HT-29, MCF-7, and LNCaP = experiment: Activity against cell lines of human origin; assay type: cell-based
[3] = test system: MCF-7 human breast carcinoma cell line; experiment: Neutral-Red viability assay in MCF-7 cells; assay type: cell-based; conditions: MCF-7, 30 μM, 24 hours
Method: (§3) Cell culture: The following human cell lines (1) LNCaP—human prostate carcinoma cell line (2) MCF-7—human breast carcinoma cell line, and (3) GA—human melanoma cell line (3) HaCaT—immortalizes normal human skin keratinocytes were tested. Cells were inoculated in RPMI 1640 (LNCaP and GA) or Dulbecco modified eagle medium-DMEM (MCF-7 and HaCaT) supplemented with 10% heat inactivated fetal calf serum, 200 μM L-glutamine, 10 units/ml Penicillin and 10 μgr/ml Streptomycin. The cells were kept at 37° C. in a 5% CO2 humidified atmosphere.
(§4) The direct effect of the compound compared to free calcipotriene and vitamin D3 in the viability and proliferation level of cultured cells was assessed in vitro using cultured Cells. The cells were inoculated in 0.2 ml fresh medium. After 24 at 37° C. in a 5% CO2 humidified atmosphere, the medium was replaced with a fresh medium containing 0.5% ethanol and 30, 5, 1 and 0.1 μM test substance. Medium containing 0.5% ethanol without test compounds was used for the control cells. Cell growth and proliferation was assayed by Neutral-Red assay (evaluated by measuring the absorbance of the dye following 3 hours incubation, in 540 nm) at the stated times.

HaCaT keratinocytes = experiment: Cellular entry into HaCaT keratinocytes by HPLC; assay type: in vitro ADME, human; conditions: for entry into keratinocytes: HaCaT cultures, HPLC of external and internal fractions; for cell internalization normalized per cell: 0.5×10^6 to 9.7×10^6 cells, data not shown
Method: (§5) External and internal fractions of HaCaT cultures (0.5×10^6, 1×10^6, 3×10^6, 5×10^6 and 9.7×10^6 cells) were analyzed by HPLC.

[4] = test system: HaCaT immortalizes normal human skin keratinocytes; experiment: Neutral-Red viability assay in HaCaT cells; assay type: cell-based
Method: as §3, §4

HaCaT cells = experiment: MTT and NR viability assays for HaCaT cells (FIG. 7); assay type: cell-based, human; parameters: dose or concentration left out as unconfirmed; conditions: (for 24 hours)
Method: FIG. 7 is a bar graph showing the results of a MTT and NR viability assays for HaCaT cells treated with 30 µM (for 24 hours) of 1α,25(OH)2 vitamin D3, calcipotriol (CPT), and BGP-13.
Viability of HaCaT cells in the presence of three vitamin D3 derivatives, 1α,25(OH)2 D3 (calcitriol), and BGP-013 was studied by MTT assay.

[5] = test system: LNCaP human prostate carcinoma cell line; experiment: Neutral-Red viability assay in LNCaP cells; assay type: cell-based; conditions: for antiproliferative effect (viability assay): 30 μM, 24 hours
Method: as §3, §4

[6] = Stability in the external medium; assay type: in vitro ADME; conditions: relative to CPT
Method: as §5

p21^WAF1 = experiment: Western blot of p21 expression in LNCaP cells; assay type: cell-based, human; conditions: 100 nM, 48 hours
Method: Cells were incubated for 5 minutes at room temperature in 100 μl of 1% SDS lysis buffer. Samples were then collected into eppendorfs, incubated for 10 minutes at 100° C., and centrifuged at 14,000 rpm for 10 minutes. Supernatants were transferred into new tubes and pellets were discarded. Determination of protein concentration was conducted using the Bradford assay. […] protein of each sample was loaded on PVDF membranes and incubated with anti p21 antibody (Santa Cruz Biotechnology, Santa Cruz, Calif., U.S.A).

[7] = Reaction with singlet oxygen (endoperoxide-naphthalene trapper); conditions: room temperature, product detected by TLC, LC-MS
Source text: The trapper, endoperoxide-naphthalene, was converted into naphthalene and released exclusively singlet oxygen at room temperature (FIG. 11). Combining calcipotriol with the endoperoxide has created a new product that was first detected by TLC as BGP-13. LC-MS has confirmed that this indeed is the substance.

[8] = CPT metabolite in rat skin
Source text: LC/MS analysis has confirmed that the metabolite peak appeared at BGP-13's retention time was indeed this derivative (FIG. 10). […] The formation of reduced levels of this metabolite is probably due to the poor penetration of calcipotriol into the skin. Therefore, intracellular BGP-13 is an […] product of the internalized CPT with reactive oxygen species (ROS) such as singlet oxygen. This metabolic pathway of calcipotriol may have a role in scavenging ROS and reducing inflammatory processes in cells and tissue.

hypercalcemia (calcium levels in rat blood) [1]	SMILES	hypercalciuria (total daily secretion of calcium in rat urine) [1]	tumor size relative to controls at 30 days after cancer cell injection [2]	size of tumors versus vehicle-treated control mice [2]	weight loss or observable adverse effects [2]	cell survival (MTT) (MCF-7 cells)	cell survival (MTT) (LNCaP cells)	activity against cell lines of human origin (HT-29, MCF-7, and LNCaP)	entry into keratinocytes (HaCaT keratinocytes)	cell internalization normalized per cell (HaCaT keratinocytes; HaCaT)	antiproliferative effect (viability assay) [5]	p21 expression (p21^WAF1)	further results
do not generate hypercalcemia	C=C1/C(=C\C=C2/CCC[C@@]3(C)C2CC[C@@H]3C(C)/C=C/C(Cl)C2CC2)C[C@@H](O)C[C@@H]1O (some centres unmarked) [Calci-Cl]	do not generate hypercalcemia or hypercalciuria	half the size	significantly smaller	did not cause either weight loss or any observable adverse effects	reduce prostate and breast cancer cells survival	reduce prostate and breast cancer cells survival	active at least against three cell lines	–	–	–	–	–
–	C=C1/C(=C\C=C2/CCC[C@@]3(C)C2CC[C@@H]3C(C)C2C=C(C3CC3)OO2)C[C@@H](O)C[C@@H]1O (some centres unmarked) [Compound II, Calci-dioxole]	–	half the size	significantly smaller	did not cause either weight loss or any observable adverse effects	–	–	active at least against three cell lines	approximately 60 % of the applied substance	constant even at a high cell density	much more potent antiproliferative effect on the LNCaP and MCF-7 cancer cells as compared to HaCaT cells; also recorded: significantly high efficacy; also recorded: much more potent antiproliferative effect on LNCaP and MCF-7 cancer cells than on HaCaT cells; also recorded: much more potent antiproliferative effect on LNCaP cells than calcipotriol alone	not mediated through increased p21 expression	antiproliferative effect (viability assay) [3]: much more potent antiproliferative effect on the LNCaP and MCF-7 cancer cells as compared to HaCaT cells; also recorded: much more potent antiproliferative effect on LNCaP and MCF-7 cancer cells than on HaCaT cells; intracellular permeation as fraction of the total quantity momentarily present in the cell culture (HaCaT keratinocytes; HaCaT): enhanced intracellular permeation increased its stability by preventing degradation in the medium; selectivity for carcinogenic versus non-carcinogenic cells ([4]; HaCaT compared with cancer cell lines): more selective for carcinogenic cells; also recorded: might have a less potent effect on non-carcinogenic cells than on carcinogenic cells; potency of treatment (viability assay) ([4]; HaCaT, 5 μM and 1 μM, 6 days): less potent than treatments with calcitriol and calcipotriol; inhibition of proliferation of keratinocytes (MTT assay) (HaCaT cells): inhibited the proliferation of the keratinocytes at the same rate and extent as CPT or calcitriol; mortality (viability assay) ([5]; 5 μM, 6 days): higher mortality than cells exposed to calcipotriol alone; antiproliferative effect (viability assay) ([5]; listed as BGP-13): much more potent antiproliferative effect on LNCaP cells than calcipotriol alone; stability in the medium [6]: significantly less stable in the medium relative to CPT
do not generate hypercalcemia	C=C1/C(=C\C=C2/CCC[C@]3(C)[C@@H]([C@H](C)/C=C/[C@@H](O)C4CC4)CC[C@@H]23)C[C@@H](O)C[C@@H]1O [calcipotriol, reference compound]	do not generate hypercalcemia or hypercalciuria	–	–	–	reduce prostate and breast cancer cells survival	reduce prostate and breast cancer cells survival	–	comparable	constant even at a high cell density	less efficacious; also recorded: relatively lower anticancer effect	increased p21 expression	action towards singlet oxygen [7]: antioxidant/quencher of singlet oxygen; metabolite BGP-13 in rat skin [8]: found at low levels
–	C=C1/C(=C\C=C2/CCC[C@]3(C)[C@@H]([C@H](C)CCCC(C)(C)O)CC[C@@H]23)C[C@@H](O)C[C@@H]1O [calcitriol]	–	–	–	–	reduce prostate and breast cancer cells survival	reduce prostate and breast cancer cells survival	–	–	–	less efficacious; also recorded: relatively lower anticancer effect	increased p21 expression	–
